The assay concerns L1210 leukemia ip in BDF1 mice, survival T/C. The assay can be described thus: NCI In Vivo Anticancer Drug Screen. Data for tumor model L1210 Leukemia (intraperitoneal) in B6D2F1 (BDF1) mice. As to conditions: endpoint: mean survival time, higher = longer survival. The gist of the method: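 Antitumor effect is assessed in tumor-bearing animals. Survival in the compound arm is compared with a vehicle-dosed control arm and expressed as their quotient.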

The mark [1] stands for this setting: dose: 100.0 mg/kg/injection, schedule: Q04DX002 (ip), vehicle: saline.
Setting [2] is: dose: 50.0 mg/kg/injection, schedule: Q01DX009 (ip), vehicle: saline with Tween-80.
Setting [3] is: dose: 100.0 mg/kg/injection, schedule: Q01DX009 (ip), vehicle: saline with Tween-80.
Setting [4] is: dose: 100.0 mg/kg/injection, schedule: Q04DX003 (ip), vehicle: saline with Tween-80.
Where [5] appears, read: dose: 200.0 mg/kg/injection, schedule: Q01DX009 (ip), vehicle: saline with Tween-80.
Where [6] appears, read: dose: 200.0 mg/kg/injection, schedule: Q04DX003 (ip), vehicle: saline with Tween-80.
Setting [7] is: dose: 400.0 mg/kg/injection, schedule: Q04DX003 (ip), vehicle: saline with Tween-80.
The mark [8] stands for this setting: dose: 100.0 mg/kg/injection, schedule: Q01DX009 (ip), vehicle: Klucel (hydroxypropylcellulose) (HPC).
Where [9] appears, read: dose: 200.0 mg/kg/injection, schedule: Q01DX009 (ip), vehicle: Klucel (hydroxypropylcellulose) (HPC).
The mark [10] stands for this setting: dose: 400.0 mg/kg/injection, schedule: Q01DX009 (ip), vehicle: Klucel (hydroxypropylcellulose) (HPC).
[11] abbreviates: dose: 100.0 mg/kg/injection, schedule: Q01DX001 (ip), vehicle: saline with Tween-80.
The mark [12] stands for this setting: dose: 200.0 mg/kg/injection, schedule: Q01DX001 (ip), vehicle: saline with Tween-80.
The mark [13] stands for this setting: dose: 100.0 mg/kg/injection, schedule: Q04DX002 (ip), vehicle: saline with Tween-80.
Where [14] appears, read: dose: 200.0 mg/kg/injection, schedule: Q04DX002 (ip), vehicle: saline with Tween-80.
Where [15] appears, read: dose: 100.0 mg/kg/injection, schedule: Q04DX003 (ip), vehicle: Klucel (hydroxypropylcellulose) (HPC).
[16] abbreviates: dose: 200.0 mg/kg/injection, schedule: Q04DX003 (ip), vehicle: Klucel (hydroxypropylcellulose) (HPC).
The mark [17] stands for this setting: dose: 400.0 mg/kg/injection, schedule: Q04DX003 (ip), vehicle: Klucel (hydroxypropylcellulose) (HPC).
The mark [18] stands for this setting: dose: 25.0 mg/kg/injection, schedule: Q01DX009 (ip), vehicle: saline.
[19] abbreviates: dose: 50.0 mg/kg/injection, schedule: Q01DX009 (ip), vehicle: saline.
The mark [20] stands for this setting: dose: 100.0 mg/kg/injection, schedule: Q01DX009 (ip), vehicle: saline.
Setting [21] is: dose: 100.0 mg/kg/injection, schedule: Q04DX003 (ip), vehicle: saline.
Setting [22] is: dose: 200.0 mg/kg/injection, schedule: Q01DX009 (ip), vehicle: saline.
Where [23] appears, read: dose: 200.0 mg/kg/injection, schedule: Q04DX003 (ip), vehicle: saline.
Setting [24] is: dose: 100.0 mg/kg/injection, schedule: Q01DX001 (ip), vehicle: saline.
Setting [25] is: dose: 200.0 mg/kg/injection, schedule: Q01DX001 (ip), vehicle: saline.
Where [26] appears, read: dose: 400.0 mg/kg/injection, schedule: Q01DX001 (ip), vehicle: saline.

Several values for one entry are separate records, joined by “and”; a condition that tells them apart may be missing. Equal entries are not always repeated. Inconclusive results and toxic doses are left out.

Regarding `C[N+](C)(C)CCCS(=O)(=O)[O-]`, the T/C reads like this: (dose: 50.0 mg/kg/injection, schedule: Q01DX001 (sc), vehicle: saline) 98 % of control; (dose: 100.0 mg/kg/injection, schedule: Q01DX001 (sc), vehicle: saline) 98 % of control; under setting [1], 100 % of control; (dose: 200.0 mg/kg/injection, schedule: Q01DX001 (sc), vehicle: saline) 109 % of control; (dose: 200.0 mg/kg/injection, schedule: Q04DX002 (ip), vehicle: saline) 111 % of control; (dose: 400.0 mg/kg/injection, schedule: Q01DX001 (sc), vehicle: saline) 98 % of control. For the same compound, under “dose: 400.0 mg/kg/injection, schedule: Q04DX002 (ip), vehicle: saline”, the T/C was 95 % of control.

As for `CCN(CC)CC(=O)Nc1cccc2c1C(=O)c1c(c(O)c3ccccc3c1O)C2=O`, the T/C under setting [2] was 94 % of control; the T/C under setting [3] is 103 % of control; the T/C under setting [4] is 101 % of control; the T/C under setting [5] is 98 % of control; the T/C under setting [6] is 155 % of control; the T/C under setting [7] was 102 % of control.

For `CC(C)CCCC(C)C1CCC2C3CCC4=C/C(=N/NC(N)=O)CCC4(C)C3CCC12C` (configuration not stated), the T/C is 97 % of control (dose: 50.0 mg/kg/injection, schedule: Q01DX009 (ip), vehicle: Klucel (hydroxypropylcellulose) (HPC)); 90 % of control under setting [8]; 88 % of control under setting [9].

`CC(=O)n1c(O)c(N=NC(=O)c2ccccc2[N+](=O)[O-])c2ccccc21`: the T/C is 86 % of control under setting [8], 93 % of control under setting [9] and 89 % of control under setting [10].

As for `OCCOC(c1ccccc1)(c1ccccc1)c1ccccc1`, the T/C was 98 % of control under setting [2], 100 % of control under setting [3] and 91 % of control under setting [5].

Take `CC(=O)OC1CCC2(C)C(C1)CC(OC(C)=O)C1C2CCC2(C)C(C(C)CCC(=O)O)CCC12` (configuration not stated): the T/C under setting [11] is 92 % of control; the T/C under setting [12] was 97 % of control; the T/C (dose: 400.0 mg/kg/injection, schedule: Q01DX001 (ip), vehicle: saline with Tween-80) was 92 % of control.

In the case of `Cc1ccc(N=Cc2cc(Cl)cc(Cl)c2O)cc1.Cc1ccc(N=Cc2cc(Cl)cc(Cl)c2O)cc1.[Co]`, the T/C is, setting by setting: under setting [4], 104 % of control; under setting [6], 100 % of control; under setting [7], 114 % of control.

For the compound `CCOC(=O)C1(CCCN2C(=O)c3ccccc3C2=O)CC(C(=O)OCC)(C(=O)OCC)CCC1=O` (configuration not stated), the T/C is 94 % of control under setting [13] and 100 % of control under setting [14].

In the case of `CSc1ccc(C(O)Cc2ccc([N+](=O)[O-])cc2)cc1` (configuration not stated), the T/C by setting is: under setting [8], 96 % of control; under setting [15], 94 % of control; under setting [9], 97 % of control; under setting [16], 96 % of control; under setting [10], 100 % of control; under setting [17], 98 % of control.

With `CC(CO)NC(=O)C1C=C2c3cccc4[nH]cc(c34)CC2N(C)C1` (configuration not stated), the T/C reads like this: (dose: 3.12 mg/kg/injection, schedule: Q04DX003 (ip), vehicle: saline) 114 % of control; (dose: 6.25 mg/kg/injection, schedule: Q04DX003 (ip), vehicle: saline) 114 % of control; (dose: 12.5 mg/kg/injection, schedule: Q01DX009 (ip), vehicle: saline) 109 % of control; (dose: 12.5 mg/kg/injection, schedule: Q04DX003 (ip), vehicle: saline) 114 % of control; under setting [18], 95 % of control; (dose: 25.0 mg/kg/injection, schedule: Q04DX003 (ip), vehicle: saline) 101 % of control. Moreover, the T/C by setting is: under setting [19], 96 % of control; (dose: 50.0 mg/kg/injection, schedule: Q04DX003 (ip), vehicle: saline) 103 % of control; under setting [20], 95 % of control; under setting [21], 100 % of control; under setting [22], 96 % of control; under setting [23], 102 % of control.

Regarding `CC(C)(C)SCC#CCSC(C)(C)C`, the T/C reads like this: under setting [2], 100 % of control; under setting [3], 118 % of control; under setting [13], 103 % of control; under setting [5], 96 % of control; under setting [14], 100 % of control.

In the case of `C=C1CC(C)(C)C(c2ccccc2)OC1=O` (configuration not stated), the T/C is 107 % of control under setting [11] and 102 % of control under setting [12].

For `Cc1ccc(S(C)(=N)=O)cc1` (configuration not stated), the T/C under setting [20] is 102 % of control; the T/C under setting [21] is 95 % of control; the T/C under setting [22] was 100 % of control; the T/C under setting [23] was 98 % of control; the T/C (dose: 400.0 mg/kg/injection, schedule: Q01DX009 (ip), vehicle: saline) is 105 % of control; the T/C (dose: 400.0 mg/kg/injection, schedule: Q04DX003 (ip), vehicle: saline) was 98 % of control.

For the compound `Cc1cccn(C)c1=O`, the T/C by setting is: under setting [24], 95 % of control; under setting [25], 101 % of control; under setting [26], 96 % of control.

Turning to `CC/C(=C(/CC)c1ccc(OP(=O)(O)O)cc1)c1ccc(OP(=O)(O)O)cc1`, the T/C reads like this: (dose: 100.0 mg/kg/injection, schedule: Q01DX001 (ip), vehicle: carboxymethylcellulose (CMC)) 108 % of control; (dose: 100.0 mg/kg/injection, schedule: Q01DX001 (ip), vehicle: water) 101 % of control; (dose: 100.0 mg/kg/injection, schedule: Q04DX003 (sc), vehicle: olive oil, sesame oil, peanut oil) 103 % of control; (dose: 200.0 mg/kg/injection, schedule: Q01DX001 (ip), vehicle: carboxymethylcellulose (CMC)) 95 % of control; (dose: 200.0 mg/kg/injection, schedule: Q01DX001 (ip), vehicle: water) 97 % of control; (dose: 200.0 mg/kg/injection, schedule: Q04DX003 (sc), vehicle: olive oil, sesame oil, peanut oil) 102 % of control. The T/C reads like this: (dose: 400.0 mg/kg/injection, schedule: Q01DX001 (ip), vehicle: carboxymethylcellulose (CMC)) 106 % of control; (dose: 400.0 mg/kg/injection, schedule: Q01DX001 (ip), vehicle: water) 98 % of control; (dose: 400.0 mg/kg/injection, schedule: Q04DX003 (sc), vehicle: olive oil, sesame oil, peanut oil) 107 % of control.

Consider `O=C1NC2(CCCCC2)NC12CCCCC2`, for which the T/C by setting is: under setting [18], 118 % of control; under setting [19], 110 % of control; under setting [20], 106 % of control.

For the compound `CN1C(=O)C2C(N=CN2C)N(C)C1=O` (configuration not stated), the T/C was 96 % of control under setting [3] and 90 % of control under setting [5].

`O=[N+]([O-])c1ccc(C=Nc2ccccc2CO)s1`: the T/C by setting is: under setting [15], 103 % of control; under setting [16], 104 % of control; under setting [17], 93 % of control.

With `Cc1cc(Cl)nc2ccc(Cc3ccc(Br)cc3)cc12`, the T/C is, setting by setting: under setting [24], 95 % of control; under setting [25], 96 % of control; under setting [26], 91 % of control.

Take `O=C1OCC/C1=C\CCCCCCCCC1CO1` (configuration not stated): the T/C is 94 % of control (dose: 25.0 mg/kg/injection, schedule: Q04DX002 (ip), vehicle: saline); 102 % of control (dose: 50.0 mg/kg/injection, schedule: Q04DX002 (ip), vehicle: saline); 94 % of control and 101 % of control under setting [1].
